Measurements from patent publication US10513723B2 (AMGEN INC., priority 2014, dated 2019).

Key:
[1] = tested on: Cell line I (expresses an IgG2 antibody); experiment: Fed-batch 2 L bioreactor culture, % high mannose by peptide mapping glycan profiling; format: cell-based; conditions: single supplement of 0.1 g/L L-ornithine monohydrochloride on day 0 vs ornithine-free control; samples days 6, 8 and 12; FIG. 8
Experimental: Glycan profiling was performed by peptide mapping. […] Specifically, about 50-70 μg of each antibody was denatured and reduced with 7.0 M guanidine.HCl, 6 mM dithiothreitol (DTT) in 0.2 M tris buffer (pH 7.5) at 37° C. for 30 minutes. Each denatured/reduced sample was alkylated with 14 mM iodoacetic acid at 25° C. for 25 minutes, followed by quenching the reaction by adding 8 mM DTT. […] The buffer-exchanged sample was incubated at 37° C. with 3.5 μg trypsin for 60 minutes. Digestion was quenched by adding 2.2 μL of 10% acetic acid. About 12-17 μg of digested antibody was injected for analysis.
The digested antibody was analyzed using an Agilent 1260 HPLC system directly connected to a Thermo Scientific LTQ-Orbitrap Elite mass spectrometer (Thermo Fisher Scientific Inc., Rockford, Ill.). Proteolytic peptides were separated on a Waters BEH 300 C18 column (Waters Corporation, Milford, Mass.) 2.1×150 mm, 1.7μ particle at 40° C. with a flow rate of 0.2 mL/min. Mobile phase A was 0.02% TFA in water and mobile phase B was 0.018% TFA in acetonitrile. Peptides were eluted with a gradient of 0.5-40% B in 90 minutes, followed by column washing and re-equilibration. Mass spectrometer was set up for a full MS scan in the orbitrap with 120,000 resolution followed by five data-dependent CID MS/MS scans in the linear trap with dynamic exclusion.

[2] = tested on: Cell line H (CHO cells expressing recombinant antibody); experiment: Small scale mock perfusion, % high mannose (HILIC glycan map) of the expressed recombinant glycoprotein; format: cell-based, Chinese hamster
Experimental: Cell lines H was used in this study. Cells were maintained in 3 L Erlenmeyer shake flasks (Corning Life Sciences, Lowell, Mass.) with 1 L working volume and cultivated under standard humidified condition at 36° C., 5% CO2, and shaken at 70 rpm in an automatic CO2 incubator (Thermo Fisher Scientific, Waltham, Mass.). Cells were sub-cultured in a selective growth media containing a 500 nM concentration of methotrexate (MTX) every four days, and subsequently transferred, inoculated and cultured in a growth media for four days before being seeded in a 24 wells plate for the experiments described below. […] Different N-glycan species of antibodies were analyzed by hydrophilic-interaction liquid chromatography (HILIC). The purified antibodies were digested by N-glycosidase F (New England BioLabs, Ipswich, Mass.) at 37° C. for 2 hours to release the glycans. The released glycans were labeled with 2-aminobenzoic acid and cleaned up using GlycoClean S cartridges (Prozyme, […], Calif.). Purified glycans were then desalted and reconstituted in water for assay. HILIC chromatography was performed with a 100 mm×2.1 mm i.d BEH Glycan column using UPLC (Waters Corporation, Milford, Mass.) and the eluted glycans were detected, identified, and qualified by a fluorescence detector based on different elution times of different glycans.

[3] = tested on: Cell line H (CHO cells expressing recombinant antibody); conditions: reduction/depletion of spermine in perfusion medium (0-100 μM)
[4] = tested on: Cell line H (CHO cells expressing recombinant antibody); conditions: spermine tetrahydrochloride 0, 7, 17, 35 and 100 μM; day 5 samples; FIG. 6
Experimental: Samples were collected on day 5 of the mock perfusion assay. The 35 μM sample served as a control.
An arginine-free formulation of a perfusion media was used for small scale mock perfusion Experiment #3 (arginine concentration studies) according to the experimental design. In small scale mock perfusion Experiment #4 all arginase inhibitors were added to a perfusion media.
Briefly, the CHO cells were seeded in the plate at the targeted density ranging from 10-20×10^6 cells/mL with 3 mL working volume for each well. The cells were cultivated at 36° C., 5% CO2, 85% relative humidity and shaken at 225 rpm in a 50-mm orbital diameter Kuhner incubator (Kuhner AG, Basel, Switzerland) for 3 or 4 days. Every 24 hours, the cells were centrifuged at 200×g for 5 minutes (Beckman Coulter, Brea, Calif.) to collect the spent media and each well was then replenished with 3 mL of fresh media. The collected spent media were analyzed for titer, key metabolites and % high mannose (% HMN) (when necessary). Cells were then harvested and cell counts and viability were measured.
Five different concentrations of spermine were tested in this study. […] The perfusion medium containing 35 μM spermine acted as a control.

[5] = first series: four arginase inhibitors at 1, 10 and 20 μM vs inhibitor-free control, FIG. 10
[6] = second series: BEC 0, 10 μM, 0.5 mM, DL-α 0, 10 μM, 1.0 mM, 2.0 mM in perfusion medium, FIG. 11

Molecule: Cl.NCCC[C@H](N)C(=O)O [ornithine, L-ornithine monohydrochloride]
- % HMN (high mannose glycoform content) [1]: as the ornithine concentration is increased the % HMN increased

Molecule: Cl.Cl.Cl.Cl.NCCCNCCCCNCCCN [spermine, spermine tetrahydrochloride]
- % HMN (high mannose glycoform content) ([2]; spermine tetrahydrochloride 0, 7, 17, 35 (control) and 100 μM in perfusion medium, day 5 samples, FIG. 5): as the spermine concentration was reduced, the % HMN decreased
- Titer [3]: not affected
- amount of ornithine (extracellular) [4]: the amount of ornithine decreased with a decrease in spermine concentration

Molecule: S-(2-boronoethyl)-1-cysteine [BEC]
- % HM (high mannose glycoform content) [2, 5]: most effective in decreasing % HM
- % HM (high mannose glycoform content) [2, 6]: % HM was decreased as both inhibitor concentrations increased

Molecule: Cl.NCCC[C@](N)(C(=O)O)C(F)F (racemic) [DL-α, DL-α, Diflouromethylornithine Hydrochloride]
- % HM (high mannose glycoform content) [2, 5]: most effective in decreasing % HM
- % HM (high mannose glycoform content) [2, 6]: % HM was decreased as both inhibitor concentrations increased

Molecule: Cl.N=C(N)NCCC[C@H](N)C(=O)O [arginine, arginine monohydrochloride]
- % HM (high mannose glycoform content) ([2]; arginine 3.686, 1.843 (control), 1.38, 0.92 and 0.46 g/L in perfusion medium, FIG. 9): as the arginine concentration is increased the % HM increased
